Results: patent US20230131899A1, “INHIBITORS OF MICROBIALLY INDUCED AMYLOID” (Axial Therapeutics, Inc., priority 2020, published 2023)
Read-outs that look alike come from different tables or passages of the source.

Legend:
[1] = target: T1, human α-synuclein (Homo sapiens, UniProt P37840); assay: Cell-free Thioflavin T assay of α-synuclein aggregation (αSyn ThT Assay); assay type: biochemical; settings: αSyn 50 μM, compounds at 100 μM
T1 construct: the full-length gene for untagged human α-synuclein was inserted; made in house; host or cells: E. coli BL21(DE3), plasmid derived from pT7 or pET11a
Method in brief: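 Inhibition is reported as 100% minus background-corrected ThT signal relative to vehicle wells, taken at 36, 47, 48 or 72 h or the last read. Reactions held 50 μM recombinant α-synuclein, 20-100 μM compound, 20-40 μM ThT and 1% DMSO. Incubation was at 37° C., shaken, with a glass bead.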

[2] = tested on: CsgA expression in E. coli MC4100; assay: Monocolonized Mouse Model: csgA expression in fecal pellets by qRT-PCR; settings: 30 mg/kg, day five of treatment, relative to mice treated with vehicle alone (FIGS. 4A-B)
[3] = tested on: CsgA expression in WT E. coli; assay: qRT-PCR of CsgA expression in WT E. coli; assay type: cell-based; settings: previously observed
[4] = mean % inhibition of αSyn aggregation relative to DMSO control, read-out: αSyn ThT Assay % Inhibition
[5] = class symbol, read-out: αSyn ThT Assay % Inhibition (activity range)

| Structure (SMILES) | inhibition at 100 µM [1, 4] | inhibition at 100 µM [1, 5] | csgA expression in E. coli MC4100 monocolonized mice [2] | CsgA expression via qRT-PCR [3] |
| --- | --- | --- | --- | --- |
| CCCN1CC(C(=O)O)n2c(c(-c3cccc(C(F)(F)F)c3)c(Cc3cccc4ccccc34)cc2=O)S1(=O)=O (racemic) [Compound 016, 8-(naphthalen-1-ylmethyl)-6-oxo-2-propyl-9-(3-(trifluoromethyl)phenyl)-3,4-dihydro-2H,6H-pyrido[1,2-e][1,2,5]thiadiazine-4-carboxylic acid 1,1-dioxide] | 68% | > 60% | reduction of csgA expression | – |
| Nc1c(Cc2cccc3ccccc23)c(-c2cccc(C(F)(F)F)c2)c2n(c1=O)C(C(=O)O)CS2 (racemic) [Compound 020, 6-amino-7-(naphthalen-1-ylmethyl)-5-oxo-8-(3-(trifluoromethyl)phenyl)-2,3-dihydro-5H-thiazolo[3,2-a]pyridine-3-carboxylic acid] | 53% | 31 to 60% | – | inhibit CsgA expression |
| O=C(O)C1CSc2c(-c3cccc(C(F)(F)F)c3)c(Cc3cccc4ccccc34)cc(=O)n21 (single isomer, unassigned) [Compound 011a, 7-(naphthalen-1-ylmethyl)-5-oxo-8-(3-(trifluoromethyl)phenyl)-2,3-dihydro-5H-thiazolo[3,2-a]pyridine-3-carboxylic acid] | 13% | 11 to 30% | – | – |
| O=C(O)C1C[S+]([O-])c2c(-c3cccc(C(F)(F)F)c3)c(Cc3cccc4ccccc34)cc(=O)n21 (racemic) [Compound 027b, 7-(naphthalen-1-ylmethyl)-5-oxo-8-(3-(trifluoromethyl)phenyl)-2,3-dihydro-5H-thiazolo[3,2-a]pyridine-3-carboxylic acid 1-oxide] | 4% | -10 to 10% | – | – |
| CN1CC(C(=O)O)n2c1c(-c1cccc(C(F)(F)F)c1)c(Cc1cccc3ccccc13)c(Br)c2=O (centres unmarked) [Compound 119, 6-bromo-1-methyl-7-(naphthalen-1-ylmethyl)-5-oxo-8-(3-(trifluoromethyl)phenyl)-1,2,3,5-tetrahydroimidazo[1,2-a]pyridine-3-carboxylic acid] | 41% | 31 to 60% | – | – |
| O=C(O)C1CN(CCCCCO)S(=O)(=O)c2c(-c3cccc(C(F)(F)F)c3)c(Cc3cccc4ccccc34)c(NC3CCCC3)c(=O)n21 (centres unmarked) [Compound 122, 7-(cyclopentylamino)-2-(5-hydroxypentyl)-8-(naphthalen-1-ylmethyl)-6-oxo-9-(3-(trifluoromethyl)phenyl)-3,4-dihydro-2H,6H-pyrido[1,2-e][1,2,5]thiadiazine-4-carboxylic acid 1,1-dioxide] | 38% | 31 to 60% | – | – |
